According to US20110212968A1, “PHENETHYLAMIDE DERIVATIVES AND THEIR HETEROCYCLIC ANALOGUES” (priority 2008, published 2011):

Legend:
human orexin-1 receptor = biological target: T1, human orexin-1 receptor (Homo sapiens, UniProt O43613); experiment: Intracellular calcium measurement (FLIPR Tetra), orexin receptor antagonistic activity, OX1; format: cell-based; details: CHO cells expressing human orexin-1 receptor, 3 nM orexin-A
T1 construct: expressed in transfected cells; host or cells: CHO (Chinese hamster ovary) cells, kept under G418 selection
T1 sequence (O43613 1-425): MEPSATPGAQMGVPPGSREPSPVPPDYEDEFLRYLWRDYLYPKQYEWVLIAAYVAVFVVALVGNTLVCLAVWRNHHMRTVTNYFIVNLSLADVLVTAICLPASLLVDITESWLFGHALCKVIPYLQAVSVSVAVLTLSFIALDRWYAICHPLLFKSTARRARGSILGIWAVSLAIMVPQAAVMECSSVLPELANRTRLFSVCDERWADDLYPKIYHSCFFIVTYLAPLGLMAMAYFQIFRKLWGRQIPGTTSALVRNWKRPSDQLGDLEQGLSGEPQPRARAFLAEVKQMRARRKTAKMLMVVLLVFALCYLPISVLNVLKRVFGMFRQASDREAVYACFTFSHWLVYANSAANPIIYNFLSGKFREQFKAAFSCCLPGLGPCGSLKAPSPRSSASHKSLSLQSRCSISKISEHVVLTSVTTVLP
Experimental: (§1) The orexin receptor antagonistic activity of the compounds of formula (I) is determined in accordance with one of the following experimental methods.
(§2) Chinese hamster ovary (CHO) cells expressing the human orexin-1 receptor and the human orexin-2 receptor, respectively, are grown in culture medium (Ham F-12 with L-Glutamine) containing 300 μg/ml G418, 100 U/ml penicillin, 100 μg/ml streptomycin and 10% heat inactivated fetal calf serum (FCS). The cells are seeded at 20,000 cells/well into 384-well black clear bottom sterile plates (Greiner). The seeded plates are incubated overnight at 37° C. in 5% CO2.
(§3) Human orexin-A as an agonist is prepared as 1 mM stock solution in MeOH:water (1:1), diluted in HBSS containing 0.1% bovine serum albumin (BSA), NaHCO3: 0.375 g/l and 20 mM HEPES for use in the assay at a final concentration of 3 nM. Antagonists are prepared as 10 mM stock solution in DMSO, then diluted in 384-well plates, first in DMSO, then in HBSS containing 0.1% bovine serum albumin (BSA), NaHCO3: 0.375 g/l and 20 mM HEPES.
(§4) On the day of the assay, 50 μl of staining buffer (HBSS containing 1% FCS, 20 mM HEPES, NaHCO3: 0.375 g/l, 5 mM probenecid (Sigma) and 3 μM of the fluorescent calcium indicator fluo-4 AM (1 mM stock solution in DMSO, containing 10% pluronic) is added to each well.
(§5) The 384-well cell-plates are incubated for 50 min at 37° C. in 5% CO2 followed by equilibration at RT for 30-120 min before measurement.
(§6) Within the Fluorescent Imaging Plate Reader (FLIPR Tetra, Molecular Devices), antagonists are added to the plate in a volume of 10 μl/well, incubated for 10 min and finally 10 μl/well of agonist is added. Fluorescence is measured for each well at 1 second intervals, and the height of each fluorescence peak is compared to the height of the fluorescence peak induced by 3 nM orexin-A with vehicle in place of antagonist. For each antagonist, the IC50 value (the concentration of compound needed to inhibit 50% of the agonistic response) is determined and may be normalized using the obtained IC50 value of a on-plate reference compound (normalized values in Table 1 are indicated by an asterisk *). With the FLIPR Tetra, two different conditions (conditions A and conditions B) were used, differing in adjustment of pipetting speed and cell splitting regime. The calculated IC50 values of the compounds may fluctuate depending on the daily cellular assay performance. Fluctuations of this kind are known to those skilled in the art.

human orexin-2 receptor = biological target: T2, human orexin-2 receptor (Homo sapiens, UniProt O43614); experiment: Intracellular calcium measurement (FLIPR Tetra), orexin receptor antagonistic activity, OX2; format: cell-based; details: CHO cells expressing human orexin-2 receptor, 3 nM orexin-A
T2 construct: expressed in transfected cells; host or cells: CHO (Chinese hamster ovary) cells, kept under G418 selection
T2 sequence (O43614 1-444): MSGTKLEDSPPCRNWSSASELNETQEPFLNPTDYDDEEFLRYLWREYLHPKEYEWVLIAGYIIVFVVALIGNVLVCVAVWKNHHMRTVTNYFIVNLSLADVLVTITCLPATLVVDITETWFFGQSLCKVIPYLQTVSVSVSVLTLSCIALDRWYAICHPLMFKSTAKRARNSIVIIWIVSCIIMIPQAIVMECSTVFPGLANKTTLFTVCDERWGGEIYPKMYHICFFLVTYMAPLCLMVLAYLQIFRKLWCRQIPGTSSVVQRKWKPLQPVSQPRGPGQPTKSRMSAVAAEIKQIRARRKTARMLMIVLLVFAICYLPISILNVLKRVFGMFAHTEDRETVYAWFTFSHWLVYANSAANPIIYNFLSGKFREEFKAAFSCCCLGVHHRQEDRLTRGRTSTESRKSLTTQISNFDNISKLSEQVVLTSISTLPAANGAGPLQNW
Experimental: as §1, §2, §3, §4, §5, §6

[1] = conditions B, normalized (*) using IC50 of on-plate reference compound

IC50 (human orexin-1 receptor; [1]) [nM] | IC50 (human orexin-2 receptor; [1]) [nM] | IC50 (human orexin-1 receptor; conditions B) [nM] | IC50 (human orexin-2 receptor; conditions B) [nM] | Structure (SMILES) | other results
421 | 196 | – | – | COC(=O)CN(CCc1c[nH]c2ccc(F)cc12)C(=O)c1cnc(C)nc1-c1ccc(Cl)c(Cl)c1 [Example 604, {[4-(3,4-Dichloro-phenyl)-2-methyl-pyrimidine-5-carbonyl]-[2-(5-fluoro-1H-indol-3-yl)-ethyl]-amino}-acetic acid methyl ester] | –
– | – | 21 | 15 | COc1ccc(CCN(CC2CC2)C(=O)c2nc(C)sc2-c2ccc(C)c(C)c2)cc1SC [Example 201, 5-(3,4-Dimethyl-phenyl)-2-methyl-thiazole-4-carboxylic acid cyclopropylmethyl-[2-(4-methoxy-3-methylsulfanyl-phenyl)-ethyl]-amide] | –
– | – | 538 | 12 | COc1cc(CCN(CC2CC2)C(=O)c2nc(C)sc2-c2ccc(C)c(C)c2)ccc1O [Example 207, 5-(3,4-Dimethyl-phenyl)-2-methyl-thiazole-4-carboxylic acid cyclopropylmethyl-[2-(4-hydroxy-3-methoxy-phenyl)-ethyl]-amide] | –
– | – | 147 | 12 | COc1cc(CCN(CC2CC2)C(=O)c2nc(N)sc2-c2cccc(C)c2)cc(OC)c1OC(C)C [Example 173, 2-Amino-5-m-tolyl-thiazole-4-carboxylic acid cyclopropylmethyl-[2-(4-isopropoxy-3,5-dimethoxy-phenyl)-ethyl]-amide] | –
– | – | 388 | 4 | COc1ccc(CCN(CC2CC2)C(=O)c2ncccc2-c2ccc(C)cc2)cc1OC [Example 391] | –
4 | 17 | – | – | COc1ccc(-c2sc(C)nc2C(=O)N(CCc2c[nH]c3cc(F)ccc23)CC2CC2)cn1 [Example 350, 5-(6-Methoxy-pyridin-3-yl)-2-methyl-thiazole-4-carboxylic acid cyclopropylmethyl-[2-(6-fluoro-1H-indol-3-yl)-ethyl]-amide] | –
– | – | 182 | 4 | COc1ccc(CCN(CC2CC2)C(=O)c2ncccc2-c2cccc(C)c2)cc1OC [Example 390, 3-m-Tolyl-pyridine-2-carboxylic acid cyclopropylmethyl-[2-(3,4-dimethoxy-phenyl)-ethyl]-amide] | –
– | – | 25 | 27 | CCC(Cc1ccc(OC)c(OC)c1)N(CC1CC1)C(=O)c1nc(N)sc1-c1cccc(C)c1 (stereo not drawn) [Example 169, 2-Amino-5-m-tolyl-thiazole-4-carboxylic acid cyclopropylmethyl-[1-(3,4-dimethoxy-benzyl)-propyl]-amide] | –
9210 | 470 | – | – | Cc1nc(-c2ccc(Cl)cc2)c(C(=O)N(CCc2c[nH]c3ccc(F)cc23)CC2CC2)s1 [Example 262, 4-(4-Chloro-phenyl)-2-methyl-thiazole-5-carboxylic acid cyclopropylmethyl-[2-(5-fluoro-1H-indol-3-yl)-ethyl]-amide] | –
– | – | – | – | COc1ccc(C(O)CN(CC2CC2)C(=O)c2nccnc2-c2ccccc2)cc1OC (stereo not drawn) [Example 99, 3-Phenyl-pyrazine-2-carboxylic acid cyclopropylmethyl-[2-(3,4-dimethoxy-phenyl)-2-hydroxy-ethyl]-amide] | IC50 (human orexin-1 receptor; conditions A): > 10000 nM; IC50 (human orexin-2 receptor; conditions A): 41 nM
257 | 190 | – | – | CCN(C)c1nc(C(=O)N(CCc2c[nH]c3ccccc23)CC2CC2)c(-c2ccccc2F)s1 [Example 500, 2-(Ethyl-methyl-amino)-5-(2-fluoro-phenyl)-thiazole-4-carboxylic acid cyclopropylmethyl-[2-(1H-indol-3-yl)-ethyl]-amide] | –
– | – | 5 | 16 | Cc1cccc(-c2sc(N)nc2C(=O)N(CCc2c[nH]c3c(F)cccc23)CC2CC2)c1 [Example 234, 2-Amino-5-m-tolyl-thiazole-4-carboxylic acid cyclopropylmethyl-[2-(7-fluoro-1H-indol-3-yl)-ethyl]-amide] | –
5620 | 283 | – | – | Cc1cccc(-c2sc(CN(C)C)nc2C(=O)N(CCc2c[nH]c3ccc(F)cc23)CC2CC2)c1 [Example 279, 2-Dimethylaminomethyl-5-m-tolyl-thiazole-4-carboxylic acid cyclopropylmethyl-[2-(5-fluoro-1H-indol-3-yl)-ethyl]-amide] | –
– | – | 266 | 7 | COc1cccc(-c2ncccc2C(=O)N(CCc2ccc(OC)c(OC)c2)CC2CC2)c1 [Example 397, N-Cyclopropylmethyl-N-[2-(3,4-dimethoxy-phenyl)-ethyl]-2-(3-methoxy-phenyl)-nicotinamide] | –
– | – | > 10000 | 279 | COc1ccc(CCN(CCN(C)C)C(=O)c2nc(N)sc2-c2cccc(C)c2)cc1OC [Example 130, 2-Amino-5-m-tolyl-thiazole-4-carboxylic acid [2-(3,4-dimethoxy-phenyl)-ethyl]-(2-dimethylamino-ethyl)-amide] | –
– | – | – | – | CCc1ccc(-c2sc(C)nc2C(=O)N(CCc2ccc(OC)c(OC)c2)CC2CC2)cc1 [Example 20, 5-(4-Ethyl-phenyl)-2-methyl-thiazole-4-carboxylic acid cyclopropylmethyl-[2-(3,4-dimethoxy-phenyl)-ethyl]-amide] | IC50 (human orexin-1 receptor; conditions A): 2130 nM; IC50 (human orexin-2 receptor; conditions A): 15 nM
– | – | 404 | 9 | CCOc1ccc(CCN(CC2CC2)C(=O)c2nc(C)sc2-c2ccc(C)c(C)c2)cc1OC [Example 199, 5-(3,4-Dimethyl-phenyl)-2-methyl-thiazole-4-carboxylic acid cyclopropylmethyl-[2-(4-ethoxy-3-methoxy-phenyl)-ethyl]-amide] | –
83 | 18 | – | – | Cc1nc(C(=O)N(CCc2c[nH]c3ccc(F)cc23)CC2CC2)c(-c2cnc3ccccc3c2)s1 [Example 428, 2-Methyl-5-quinolin-3-yl-thiazole-4-carboxylic acid cyclopropylmethyl-[2-(5-fluoro-1H-indol-3-yl)-ethyl]-amide] | –
180 | 47 | – | – | CSc1cncc(-c2sc(C)nc2C(=O)N(CCc2c[nH]c3ccc(F)cc23)CC2CC2)c1 [Example 424, 2-Methyl-5-(5-methylsulfanyl-pyridin-3-yl)-thiazole-4-carboxylic acid cyclopropylmethyl-[2-(5-fluoro-1H-indol-3-yl)-ethyl]-amide] | –
36 | 17 | – | – | O=C(c1cncnc1-c1ccc(Br)c(Cl)c1)N(CCc1c[nH]c2ccccc12)CC1CC1 [Example 513, 4-(4-Bromo-3-chloro-phenyl)-pyrimidine-5-carboxylic acid cyclopropylmethyl-[2-(1H-indol-3-yl)-ethyl]-amide] | –
– | – | 7 | 17 | COc1ccc2c(CCN(CC3CC3)C(=O)c3nc(N)sc3-c3cccc(C)c3)c[nH]c2c1 [Example 227, 2-Amino-5-m-tolyl-thiazole-4-carboxylic acid cyclopropylmethyl-[2-(6-methoxy-1H-indol-3-yl)-ethyl]-amide] | –
